Results reported in patent US10624968B2, “Compounds for treating cancer” (Bicycle Therapeutics Limited, priority 2017, dated 2020).
Like-named read-outs stand apart in the source and are kept apart here. Starred links: 1 amine or outer side, 2 acyl side, 3 side chain; linkers in the order of their positions; H or OH if unused. Positions of bridges follow the written chain, without caps; N, C: chain ends. Non-standard residues stand in square brackets, D forms with d. Residues, ends and D or L forms follow the SMILES beside them. ξ: configuration not given here. *: point of attachment. X3 = COc1cc2cc(c1Cl)N(C)C(=O)C[C@H](OC(=O)[C@H](C)N(C)C(=O)CCSCc1ccc(N*)cc1)[C@]1(C)O[C@H]1[C@H](C)[C@@H]1C[C@@](O)(NC(=O)O1)[C@H](OC)/C=C/C=C(\C)C2; TBMB = c1c(C[*:1])cc(C[*:3])cc1C[*:2]; Glutaryl = O=C(CCCC(=O)[*:2])[*:1]; ξ1Nal = NC(Cc1cccc2ccccc12)C(=O)O; Cit = NC(=O)NCCC[C@H](N)C(=O)O; ξY = NC(Cc1ccc(O)cc1)C(=O)O; ξTle = CC(C)(C)C(N)C(=O)O; ξF = NC(Cc1ccccc1)C(=O)O; ξE = NC(CCC(=O)O)C(=O)O; ξD = NC(CC(=O)O)C(=O)O; ξN = NC(=O)CC(N)C(=O)O; ξC = NC(CS)C(=O)O; βAla = NCCC(=O)O; ξA = CC(N)C(=O)O; Sar = CNCC(=O)O

Experiments:
[1] = Mortality, morbidity and body weight in HT1080 xenograft study (Example 13); format: in vivo, mouse; settings: 10 mg/kg biw
Procedure: All the procedures related to animal handling, care and the treatment in the study were performed following the guidance of the Association for Assessment and Accreditation of Laboratory Animal Care (AAALAC). At the time of routine monitoring, the animals were daily checked for any effects of tumor growth and treatments on normal behavior such as mobility, food and water consumption (by looking only), body weight gain/loss (body weights were measured every day), eye/hair matting and any other abnormal effect as stated in the protocol. Death and observed clinical signs were recorded on the basis of the numbers of animals within each subset.
Body weight was monitored regularly as an indirect measure of toxicity.

EBC-1 = assay: cells; settings: EBC-1, 72 hours
From the text: (§1) Details of the initial cell plating procedure are described in Table 3.
(§2) Data Details for Tables 5 and 6. Inhibition %=(Max−Sample value)/(Max−Min)*100.
(§3) The IC50 curves were generated by 4 Parameter Logistic Model—Sigmoidal Dose-Response Model as follows: Y=Bottom+(Top−Bottom)/(1+10^((log EC50-X)*HillSlope)).

HCC1806 = assay: cells; settings: HCC1806, 72 hours
From the text: as §1, §2, §3

HCT15 = assay: cells; settings: HCT15, 72 hours
From the text: as §1, §2, §3

HT1080 = assay: cells; settings: HT1080, 72 hours
From the text: as §1, §2, §3

HT29 = assay: cells; settings: HT29, 72 hours
From the text: as §1, §2, §3

MDA-MB-231 = assay: cells; settings: MDA-MB-231, 72 hours
From the text: as §1, §2, §3

MOLP-8 = assay: cells; settings: MOLP-8, 72 hours
From the text: as §1, §2, §3

NCI-H1975 = assay: cells; settings: NCI-H1975, 72 hours
From the text: as §1, §2, §3

NCI-H292 = assay: cells; settings: NCI-H292, 72 hours
From the text: as §1, §2, §3

PC-3 = assay: cells; settings: PC-3, 72 hours
From the text: as §1, §2, §3

SNU-16 = assay: cells; settings: SNU-16, 72 hours
From the text: as §1, §2, §3

HT1080 cells = assay: Cytotoxicity in HT1080 cells in presence and absence of 1 mM bacitracin (ATPlite, 24 hour exposure)
Procedure: HT1080 cells (ATCC, via LGC, BIC918) Maintained in EMEM media (Sigma M2279)+10% FBS (Sigma Code F7524)+4 mM L-Glu (Invitrogen Cat 25030-024)
I-1a and Toxins with Bacitracin—24 or 72 Hour Exposure in 96 Well Plates
DB seeded cells in normal media, 75 μL in 96 well clear plates, ˜24 hours previous.
HT1080—7.5 k cells/well: 50% confluent upon dosing.
Dilute in media 1:42.85=5 μL DMSO dilute+209 μL media=>use 15 μL per well
This gives a 5 μM top concentration for BDCs in assay
Add 10 µL of media±bacitracin (2 plates of each)−leave for 1 hr
(§4) Bacitracin=1 mM final concentration. This requires a 10 mM concentration with no DMSO.
Add 15 μL treatment per well as in Table 19, below.
Seal plates with gas permeable membrane and incubate at 37° C.
Washout HT1080 plates with 2×150 μL PBS at 24 h and add 100 μL fresh media
At t=72 h, equilibrate ATPlite reagent to room temperature. Add 10 ml buffer to each vial of lyophilized substrate. Add 100 μL reagent per well. Seal with PCR seal and cover to protect from light. Shake for 20 mins before reading luminescence

L540 cells = assay: Cytotoxicity in L540 cells in presence and absence of 1 mM bacitracin (ATPlite, 72 hour exposure); format: cell-based
Procedure: L540 cells (DSMZ # ACC72, BIC5121), maintained in RPMI-1640 medium (Sigma # R8758)+20% heat-inactivated serum
L540—20 k cells/well: 40% confluent upon dosing.
as §4
Add 100 μL reagent per well. […] Shake for 20 mins before reading luminescence

SMILES: COc1cc2cc(c1Cl)N(C)C(=O)C[C@H](OC(=O)[C@H](C)N(C)C(=O)CCSCc1ccc(NC(=O)[C@H](CCCNC(N)=O)NC(=O)[C@@H](NC(=O)CCCC(=O)NCCC(=O)N(C)CC(=O)N(C)CC(=O)N(C)CC(=O)N(C)CC(=O)N(C)CC(=O)N(C)CC(=O)N(C)CC(=O)N(C)CC(=O)N(C)CC(=O)N(C)CC(=O)NC(C)C(=O)NC3CSCc4cc5cc(c4)CSCC(NC(=O)C(C)NC(=O)C(Cc4cccc6ccccc46)NC(=O)C(CCC(=O)O)NC(=O)C(CC(N)=O)NC(=O)C(C)NC3=O)C(=O)NC(C)C(=O)NC(CC(=O)O)C(=O)NC(Cc3ccccc3)C(=O)NC(Cc3ccc(O)cc3)C(=O)NC(CC(=O)O)C(=O)NC(C(C)(C)C)C(=O)NC(C(N)=O)CSC5)C(C)C)cc1)[C@]1(C)O[C@H]1[C@H](C)[C@@H]1C[C@@](O)(NC(=O)O1)[C@H](OC)/C=C/C=C(\C)C2 (stereo partly drawn) [Compound I-7] ({X3-Cit-Val-Glutaryl-βAla}-[Sar][Sar][Sar][Sar][Sar][Sar][Sar][Sar][Sar][Sar][ξA][ξC][ξA][ξN][ξE][ξ1Nal][ξA][ξC][ξA][ξD][ξF][ξY][ξD][ξTle][ξC]-NH2; linker 12-18-25 via TBMB)
- mice died during the dosing period [1]: 2/3

SMILES: COc1cc2cc(c1Cl)N(C)C(=O)C[C@H](OC(=O)[C@H](C)N(C)C(=O)CCSSC)[C@]1(C)O[C@H]1[C@H](C)[C@@H]1C[C@@](O)(NC(=O)O1)[C@H](OC)/C=C/C=C(\C)C2 [DM1-Sme]
- Top inhibition% (EBC-1): 65%
- IC50 (EBC-1; read-out: Re IC50): 0.32 nM
- Top inhibition% (HCC1806): 88%
- IC50 (HCC1806; read-out: Re IC50): 0.62 nM
- Top inhibition% (HCT15): 94%
- IC50 (HCT15; read-out: Re IC50): 0.94 nM
- Top inhibition% (HT1080): 99%
- IC50 (HT1080; read-out: Re IC50): 0.22 nM
- Top inhibition% (HT29): 82%
- IC50 (HT29; read-out: Re IC50): 0.68 nM
- Top inhibition% (MDA-MB-231): 49%
- IC50 (MDA-MB-231; read-out: Re IC50): 0.79 nM
- Top inhibition% (MOLP-8): 92%
- IC50 (MOLP-8; read-out: Re IC50): 0.21 nM
- Top inhibition% (NCI-H1975): 64%
- IC50 (NCI-H1975; read-out: Re IC50): 1.52 nM
- Top inhibition% (NCI-H292): 77%
- IC50 (NCI-H292; read-out: Re IC50): 0.27 nM
- Top inhibition% (PC-3): 54%
- IC50 (PC-3; read-out: Re IC50): 0.18 nM
- Top inhibition% (SNU-16): 98%
- IC50 (SNU-16; read-out: Re IC50): 0.77 nM
- Fold shift with bacitracin (HT1080 cells; 24 hour exposure, 1 mM bacitracin vs none): 5.9
- IC50 (HT1080 cells; read-out: IC50 with 1 mM bacitracin, 24 hour exposure, + 1 mM bacitracin (PDI inhibitor)): 0.41 nM
- IC50 (HT1080 cells; read-out: Standard IC50, 24 hour exposure (high MT1 expression), no block): 0.07 nM
- IC50 (L540 cells; 72 hour exposure (low/no MT1 expression), no block, read-out: Standard IC50): 9.6 nM
- IC50 (L540 cells; read-out: IC50 with 1 mM bacitracin, 72 hour exposure, + 1 mM bacitracin): 12 nM
